Assays:
Type in all cases: cell-based
[1] = tested on: human hepatoma cell line (HepG2); conditions: MTT, 24 h incubation
Description: For in vitro cytotoxicity experiments, the cell monolayer was trypsinized, washed with culture medium, distributed in a flat-bottomed 96-well plate (5 × 10^3 cells/well), and finally incubated for 18 h at 37 °C for cell adherence.
For cytotoxicity testing, we used the (3-(4,5-dimethylthiazol-2-yl)-2,5-diphenyltetrazolium bromide (MTT) assay, performed as described in the literature. The HepG2 cell line was incubated with 20 µL of the compounds in different concentrations (200–25 µg/mL) for 24 h in an atmosphere of 5% CO2 at 37 °C.
For the MTT assay, which evaluates mitochondrial viability, 20 µL of MTT solution (5 mg/mL) was added, and the plates were incubated for an additional 3 h. After incubation, the supernatant was carefully removed from the wells, followed by addition of 100 µL DMSO with thorough mixing. Optical densities at 570 and 630 nm (background) were determined by an ELISA reader.
Cell viability was expressed as the percentage of control absorbance obtained in untreated cells after subtracting the absorbance from appropriate background. Lastly, the minimum lethal dose for 50% of the cells (MLD50) was determined as previously described in the literature. The ratio between MLD50 and drug activity (IC50) in vitro was used to determine the selectivity index (SI).

[2] = tested on: Plasmodium falciparum chloroquine-resistant W2 clone; assay: anti-HRP2 test on P. falciparum-infected erythrocytes; conditions: W2 clone; for IC50: Plasmodium falciparum, Erythrocyte, 0.05% parasitemia, 1.5% hematocrit, read-out: IC50 Plasmodium Falciparum Anti-HRP2; for activity class against P. falciparum: class by IC50
Description: (§1) Briefly, the parasites were kept as described at 37 °C in human erythrocytes (A^+) in complete medium (RPMI 1640 supplemented with 10% human sera blood group A^+, 2% glutamine, and 7.5% NaHCO3) either in Petri dishes in a candle jar or in 25-cm culture flasks in an environment containing a gas mixture atmosphere (3% O2, 5% CO2 and 91% N2). Before testing, the ring-stage parasites were synchronized by sorbitol; the suspension was adjusted for parasitemia and hematocrit as described below for each test used.
(§2) The effects of compounds against the W2 P. falciparum blood cultures were evaluated through incorporation of ^3H hypoxanthine (Perkin Elmer, Waltham, MA, USA) by the parasites. Alternatively, compound effects were also examined using monoclonal antibodies to a commercially available parasite histidine and alanine-rich protein (HRP2) (MPFM ICLLAB-55A®, MPFG55P ICLLAB®, Immunology Consultants Laboratory Inc. (ICL), Portland, OR, USA), as described previously. The [3H]-hypoxanthine assay was performed with 1% of parasitemia and 1% of hematocrit, and the level of isotope incorporation was read in a beta-counter (Perkin Elmer). The anti-HRP2 test was performed with 0.05% parasitemia and 1.5% hematocrit, and the quantification of protein was determined using a specific read at 450 nm in a spectrophotometer (SpectraMax340PC^384, Molecular Devices, Sunnyvale, CA, USA). Drug activities were expressed by the half-maximal inhibitory dose (IC50) compared to the drug-free controls and estimated using the curve-fitting software Origin 8.0 (OriginLab Corporation, Northampton, MA, USA).

[3] = tested on: Plasmodium falciparum chloroquine-resistant W2 clone; assay: [3H]-hypoxanthine incorporation assay on P. falciparum-infected erythrocytes; conditions: Erythrocyte, W2 clone, 1% parasitemia, 1% hematocrit, read-out: IC50 Plasmodium Falciparum Hypoxanthine
Description: as §1, §2

SMILES	MDL50 HepG2 [1] [µM]	IC50 [2] [µM]	activity class against P. falciparum [2]	IC50 [3] [µM]
CCN(CC)CCCC(C)Nc1cc(C)nc2ncnn12 (centres unmarked) [Compound 28, 5-Methyl-7-N'-(N,N-diethylpentane-1,4-diamine)[1,2,4]triazolo[1,5-a]pyrimidine]	>689	> 172	Inactive	> 172
CCN(CC)CCCC(C)Nc1cc(C)nc2nc(C(F)(F)F)nn12 (centres unmarked) [Compound 29, 5-Methyl-7-N'-(N,N-diethylpentane-1,4-diamine)-2-(trifluoromethyl)[1,2,4]triazolo[1,5-a]pyrimidine]	>558	73 ± 17	Inactive	39.1
